Source: US20250313532A1, “ALDH2 INHIBITORS AND METHODS OF USE THEREOF” (UNIVERSITY OF MARYLAND, BALTIMORE, priority 2022, published 2025)
Read-outs that look alike come from different tables or passages of the source.

How the values were obtained:
[1] = biological target: T1, ALDH2 (Homo sapiens, UniProt P05091); experiment: Fluorescence-based ALDH2 enzymatic inhibition assay (NADH fluorescence); assay type: biochemical; details: for IC50: ALDH2 50 nM, formaldehyde 300 μM, NAD+ 1.2 mM, pH 7.4, 25° C.; for fold more potent than hit CB-01 (ALDH2 IC50): relative to parent screening hit CB-01
T1 construct: purchased Abcam 87415
T1 sequence (P05091 18-517): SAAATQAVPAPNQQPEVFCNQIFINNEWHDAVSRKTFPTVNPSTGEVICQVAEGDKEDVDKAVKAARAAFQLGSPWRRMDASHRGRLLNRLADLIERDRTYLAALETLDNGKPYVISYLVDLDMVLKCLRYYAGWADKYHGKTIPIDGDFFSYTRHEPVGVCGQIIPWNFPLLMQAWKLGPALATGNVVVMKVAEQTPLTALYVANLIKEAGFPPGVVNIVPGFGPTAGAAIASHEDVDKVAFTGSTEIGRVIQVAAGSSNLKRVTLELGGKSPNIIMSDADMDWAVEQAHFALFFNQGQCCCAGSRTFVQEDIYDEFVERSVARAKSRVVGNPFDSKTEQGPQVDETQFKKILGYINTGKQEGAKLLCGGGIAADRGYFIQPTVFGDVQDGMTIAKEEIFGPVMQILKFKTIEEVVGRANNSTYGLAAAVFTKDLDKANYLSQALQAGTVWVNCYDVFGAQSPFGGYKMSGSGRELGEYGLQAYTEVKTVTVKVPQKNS
Procedure: Fluorescence-based ALDH2 assay was used to test the potencies of new compounds.
IC50 values of synthesized compounds is tested by an ALDH2 enzymatic assay obtained by modifying a published protocol, for example by Yang et al. This assay measures an inhibitor-caused fluorescence decrease of the NADH generated from the ALDH2 catalytic reaction. Inhibitor binding causes a decrease in the production of NADH that affects the ability of the enzyme to turnover its substrate aldehyde and decreased the production of carboxylic acid. The assay components include: ALDH2 (50 nM) (Abcam #87415), substrate formaldehyde (300 μM), NAD^+ (1.2 mM), and testing compound in phosphate buffer (50 mM, pH 7.4) with 0.01% Tween 20 at 25° C. The assay is performed in black 384-well plates (40 L total volume; Costar). […] The negative control contains the enzyme, substrate solution in phosphate buffer without the addition of the substrate formaldehyde. Measurements are performed 10 min after adding the testing compound by excitation of NAD^+ at 340 nm, which leads to fluorescence emission at 450 nm. The IC50 values of testing compounds is determined from experiments performed in a concentration-dependent manner of testing compounds by fitting the data to a sigmoidal dose-response equation in GraphPad Prism. All experiments are performed in triplicate.
An HTS ALDH2 enzymatic assay is established and can be used to measure the inhibitory potency of compounds. […] The assay was used for temperature, pH value, and concentration of ALDH2 in the 384-well format; several independent test runs were performed to assess assay parameters.
To determine the performance of the established ALDH2 activity assay under HTS conditions, a pilot screen of 980 compounds was performed. Compounds were tested in triplicate at concentrations ranging from 10 nM to 50 μM (0.1% DMSO). Raw assay data were analyzed using DataWarrior software. The IC50 value of each compound was calculated. “High Control” represents wells from the same plate containing ALDH2 (50 nM), formaldehyde (300 μM), and NAD^+ (1.2 mM) in phosphate buffer (50 mM, pH 7.4) with 0.01% Tween 20 at 25° C. and DMSO (0.1%) while “Low controls” correspond to the wells from the same plate containing ALDH2 (50 nM) treated with and NAD^+ (1.2 mM) in phosphate buffer (50 mM, pH 7.4) with 0.01% Tween 20 at 25° C. and DMSO (0.1%). […] Two values were subsequently calculated: 1) the average IC50 values of all the compounds tested in the screen, and 2) three times the standard deviation. The sum of these two values was used as the cutoff parameter.

[2] = test system: primary human hepatocytes; experiment: Cytotoxicity / cell viability in primary human hepatocytes (CCK-8); assay type: cell-based; details: concentration up to 200 uM, 24 h
Procedure: Initial cell viability assays are performed on the YA7068 and new analogs on primary human hepatocytes (see letter from Prof. Hongbing Wang) using the commercially available CellTiter-Glo® 2.0 (Promega) as described by the manufacturer. […] These studies allow us to assess if the compounds are non-toxic for human liver cells.
Cytotoxicity studies of YA7068 to primary human hepatocytes were performed.
Human primary hepatocytes were maintained in DMEM medium with 10% fetal bovine serum (FBS) and 1% PS (penicillin/streptomycin). The cells were incubated in 37° C. incubator with 5% CO2. The number of viable cells was determined using the CCK-8 assay. Briefly, cells were seeded at a density of 5000 cells/well in 96-well plates, a nd were treated in triplicate with different concentrations of individual compounds (0, 0.1, 0.5, 1, 5, 10, 25, 50, 100, and 200 PM) for 24 h. Then, 10 μL of CCK-8 working solution was added to each well and incubated for appropriate times (0.5-4 h) before subjecting to a microplate reader for OD detection at 450 nm.

[3] = biological target: T2, OATP1B1 (Homo sapiens, UniProt Q9Y6L6); experiment: OATP1B1-mediated uptake, OATP1B1-transfected vs wild-type HEK293 cells; assay type: in vitro ADME
T2 construct: expressed in transfected cells; host or cells: HEK293
T2 sequence (Q9Y6L6 1-691): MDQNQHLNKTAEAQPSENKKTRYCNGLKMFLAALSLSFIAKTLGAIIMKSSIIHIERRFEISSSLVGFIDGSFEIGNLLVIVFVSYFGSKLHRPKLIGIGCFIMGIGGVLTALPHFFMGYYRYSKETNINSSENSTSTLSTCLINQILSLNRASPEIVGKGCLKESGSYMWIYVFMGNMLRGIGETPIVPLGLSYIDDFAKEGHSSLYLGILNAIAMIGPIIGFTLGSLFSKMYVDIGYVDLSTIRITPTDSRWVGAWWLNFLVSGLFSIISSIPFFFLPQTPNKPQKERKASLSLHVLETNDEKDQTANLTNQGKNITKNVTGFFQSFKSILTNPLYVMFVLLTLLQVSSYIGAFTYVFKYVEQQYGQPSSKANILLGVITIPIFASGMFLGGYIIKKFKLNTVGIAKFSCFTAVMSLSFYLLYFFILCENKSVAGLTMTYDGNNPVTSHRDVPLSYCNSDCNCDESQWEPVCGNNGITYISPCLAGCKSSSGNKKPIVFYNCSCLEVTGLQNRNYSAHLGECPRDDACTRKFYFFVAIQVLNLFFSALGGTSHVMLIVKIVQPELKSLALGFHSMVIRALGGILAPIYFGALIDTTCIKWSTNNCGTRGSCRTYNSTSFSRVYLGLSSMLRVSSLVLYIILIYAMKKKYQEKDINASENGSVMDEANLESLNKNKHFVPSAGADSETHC
Procedure: The uptake of inhibitor YA7068 by the liver-specific transporter OATP1B1 has been evaluated using a protocol similar to the one in a recent study on OCT transporters by Obianom et al. After incubating OATP1B1-transfected HEK293 cells with the compound, the intracellular concentrations of YA7068 was >2.5-fold higher than that after incubating the wild-type HEK293 cells with the compound (FIG. 3D). In sum, compound YA7068 is developed as a novel liver-targeting potent inhibitor of ALDH2.
The OATP1-mediated uptake of synthesized compounds is assessed by an LC-MS-based method employing the OATP1B1- or OATP1B3-expressing HEK293 cells. Briefly, cells are washed twice with uptake buffer to remove floating cells. Compounds diluted in the uptake buffer are replaced in the wells and incubated for 10 min. For screening of compounds at a single concentration and one-time point, the cells are incubated with 100 μM of testing compounds. In each experiment, pitavastatin is used as a positive control. The incubation is stopped by removing the solution and adding […] of ice-cold uptake buffer. The cells are washed twice with the buffer. After washing, 200 μL of lysing solution (1:1 MeOH/H2O) containing internal standard is added. […] Aliquots of the supernatant are transferred to new tubes and drug concentration is quantified by LC-MS/MS. […]

SMILES | IC50 ([1]; read-out: IC50, ALDH2 enzymatic assay) [nM] | fold more potent than hit CB-01 (ALDH2 IC50) [1] [fold] | cytotoxicity for primary human hepatocytes [2] | IC50 ([1]; read-out: IC50, inhibition of the enzymatic activity of ALDH2) [nM] | intracellular concentration, OATP1B1-transfected HEK293 cells vs wild-type HEK293 cells ([3]; after incubating cells with the compound) [fold] | substrate for hepatocyte-specific OATP1B1 ([3]; result in words)
CS(=O)(=O)Nc1ccc(-c2cn3cc(C(=O)O)sc3n2)cc1 [YA7241, 6-(4-(Methylsulfonamido)phenyl)imidazo[2,1-b]thiazole-2-carboxylic acid] | 1900 | 5.8 | – | – | – | –
CS(=O)(=O)Nc1ccc(-c2cc3ccc(OCc4cccc(C(=O)O)c4)cc3oc2=O)cc1 [YA7068, 3-(((3-(4-(Methylsulfonamido)phenyl)-2-oxo-2H-chromen-7-yl)oxy)methyl)benzoic acid] | – | > 170 | did not exhibit any cytotoxicity | 62 | > 2.5 | functions as a substrate
